Data as given in PubChem BioAssay AID2060882 (Molecular Pharmacology Branch, DTP, NCI, 2025).
Blank lines part the entries; values can stand above or below the compound they belong to.

Tested on: 898857-211-R-J1-PDC complex spheroids, growth % test/control
Test: Anticancer human tumor 898857-211-R-J1-PDC patient-derived melanoma cell line growth inhibition [RAS]
Conditions: for IC50: curve of first compound; for viability, T/C: stronger effect = lower value
Method in brief: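 Agents were tested in combination matrices in half-log decrements from a top concentration at or near clinical Cmax (10 microM if undetermined). Targets were multi-cell spheroids of tumour lines plus HUVEC and MSC stromal cells.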

[1] = second compound 0.000949 µM, first compound 0.00316 µM
[2] = second compound 0.000949 µM, first compound 0.01 µM
[3] = second compound 0.000949 µM, first compound 0.0316 µM
[4] = second compound 0.000949 µM, first compound 0.1 µM
[5] = second compound 0.000949 µM, first compound 0.316 µM
[6] = second compound 0.000949 µM, first compound 1 µM
[7] = second compound 0.003 µM, first compound 0.00316 µM
[8] = second compound 0.003 µM, first compound 0.01 µM
[9] = second compound 0.003 µM, first compound 0.0316 µM
[10] = second compound 0.003 µM, first compound 0.1 µM
[11] = second compound 0.003 µM, first compound 0.316 µM
[12] = second compound 0.003 µM, first compound 1 µM
[13] = second compound 0.00949 µM, first compound 0.00316 µM
[14] = second compound 0.00949 µM, first compound 0.01 µM
[15] = second compound 0.00949 µM, first compound 0.0316 µM
[16] = second compound 0.00949 µM, first compound 0.1 µM
[17] = second compound 0.00949 µM, first compound 0.316 µM
[18] = second compound 0.00949 µM, first compound 1 µM
[19] = second compound 0.03 µM, first compound 0.00316 µM
[20] = second compound 0.03 µM, first compound 0.01 µM
[21] = second compound 0.03 µM, first compound 0.0316 µM
[22] = second compound 0.03 µM, first compound 0.1 µM
[23] = second compound 0.03 µM, first compound 0.316 µM
[24] = second compound 0.03 µM, first compound 1 µM
[25] = second compound 0.0949 µM, first compound 0.00316 µM
[26] = second compound 0.0949 µM, first compound 0.01 µM
[27] = second compound 0.0949 µM, first compound 0.0316 µM
[28] = second compound 0.0949 µM, first compound 0.1 µM
[29] = second compound 0.0949 µM, first compound 0.316 µM
[30] = second compound 0.0949 µM, first compound 1 µM
[31] = second compound 0.3 µM, first compound 0.00316 µM
[32] = second compound 0.3 µM, first compound 0.01 µM
[33] = second compound 0.3 µM, first compound 0.0316 µM
[34] = second compound 0.3 µM, first compound 0.1 µM
[35] = second compound 0.3 µM, first compound 0.316 µM
[36] = second compound 0.3 µM, first compound 1 µM
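Note: spheroids exposed to compound for seven days before readout.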
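Throughout, for viability, T/C: 100% = DMSO vehicle control wells.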

IC50 (second compound 0.000949 µM): 832 nM
IC50 (second compound 0.003 µM): 380 nM
IC50 (second compound 0.00949 µM): 538 nM
IC50 (second compound 0.03 µM): 561 nM
IC50 (second compound 0.0949 µM): 591 nM
IC50 (second compound 0.3 µM): 603 nM
Compound: C=CC(=O)Nc1cc(Nc2nccc(-c3cn(C)c4ccccc34)n2)c(OC)cc1N(C)CCN(C)C + CCn1c(-c2cc(N3CCN(C)CC3)cnc2C(C)OC)c2c3cc(ccc31)-c1csc(n1)CC(NC(=O)C1CC1C)C(=O)N1CCCC(N1)C(=O)OCC(C)(C)C2
viability, T/C [1]: 101%
viability, T/C [2]: 101%
viability, T/C [3]: 106%
viability, T/C [4]: 102%
viability, T/C [5]: 73.7%
viability, T/C [6]: 45.5%
viability, T/C [7]: 99%
viability, T/C [8]: 113%
viability, T/C [9]: 97%
viability, T/C [10]: 88.9%
viability, T/C [11]: 52.4%
viability, T/C [12]: 34.9%
viability, T/C [13]: 105%
viability, T/C [14]: 112%
viability, T/C [15]: 114%
viability, T/C [16]: 88.9%
viability, T/C [17]: 65.5%
viability, T/C [18]: 33.7%
viability, T/C [19]: 102%
viability, T/C [20]: 96.2%
viability, T/C [21]: 110%
viability, T/C [22]: 91.3%
viability, T/C [23]: 64.7%
viability, T/C [24]: 35.6%
viability, T/C [25]: 106%
viability, T/C [26]: 104%
viability, T/C [27]: 101%
viability, T/C [28]: 96%
viability, T/C [29]: 60.5%
viability, T/C [30]: 41.1%
viability, T/C [31]: 125%
viability, T/C [32]: 114%
viability, T/C [33]: 102%
viability, T/C [34]: 97%
viability, T/C [35]: 64.7%
viability, T/C [36]: 36.2%

IC50 (second compound 0.000949 µM): < 3.16 nM
IC50 (second compound 0.003 µM): < 3.16 nM
IC50 (second compound 0.00949 µM): < 3.16 nM
IC50 (second compound 0.03 µM): < 3.16 nM
IC50 (second compound 0.0949 µM): < 3.16 nM
IC50 (second compound 0.3 µM): < 3.16 nM
Compound: O=C(c1ccc(F)c(F)c1Nc1ccc(I)cc1F)N1CC(O)([C@@H]2CCCCN2)C1 + CCn1c(-c2cc(N3CCN(C)CC3)cnc2C(C)OC)c2c3cc(ccc31)-c1csc(n1)CC(NC(=O)C1CC1C)C(=O)N1CCCC(N1)C(=O)OCC(C)(C)C2
viability, T/C [1]: 39.8%
viability, T/C [2]: 24.2%
viability, T/C [3]: 16.8%
viability, T/C [4]: 13.9%
viability, T/C [5]: 13%
viability, T/C [6]: 9.63%
viability, T/C [7]: 33.1%
viability, T/C [8]: 21.3%
viability, T/C [9]: 17.5%
viability, T/C [10]: 12.4%
viability, T/C [11]: 10.3%
viability, T/C [12]: 6.63%
viability, T/C [13]: 32%
viability, T/C [14]: 20.5%
viability, T/C [15]: 17.8%
viability, T/C [16]: 14.2%
viability, T/C [17]: 11.3%
viability, T/C [18]: 3.23%
viability, T/C [19]: 24.2%
viability, T/C [20]: 20.7%
viability, T/C [21]: 17.8%
viability, T/C [22]: 12.8%
viability, T/C [23]: 7.8%
viability, T/C [24]: 2.22%
viability, T/C [25]: 24.6%
viability, T/C [26]: 20.2%
viability, T/C [27]: 14.7%
viability, T/C [28]: 10.4%
viability, T/C [29]: 3.52%
viability, T/C [30]: 1.46%
viability, T/C [31]: 24.1%
viability, T/C [32]: 19.1%
viability, T/C [33]: 13.3%
viability, T/C [34]: 8.51%
viability, T/C [35]: 3.03%
viability, T/C [36]: 1.17%
